Here are results for 7 molecules from ChEMBL document CHEMBL1126045, “Alanine series of ovine corticotropin releasing factor (oCRF): a structure-activity relationship study” (J Med Chem, 1992).

Test [1] deals with Pituitary gland cell. The test can be described thus: In vitro ability of the compound (peptide) to stimulate ACTH release by rat anterior pituitary cells in relative to Ovine corticotropin releasing factor (oCRF) in experiment 1. It counts as cell-based. The arrangement: unit not given here.
In test [2] the test system is Pituitary gland cell. The test can be described thus: In vitro ability of the compound (peptide) to stimulate ACTH release by rat anterior pituitary cells in relative to Ovine corticotropin releasing factor (oCRF) in experiment 2. On the set-up: unit not given here. It counts as cell-based.

Take `CC[C@H](C)[C@H](NC(=O)[C@H](CC(=O)O)NC(=O)[C@H](CC(C)C)NC(=O)[C@H](CC(C)C)NC(=O)[C@H](CCCCN)NC(=O)[C@H](CCCN=C(N)N)NC(=O)[C@H](CC(N)=O)NC(=O)[C@H](CO)NC(=O)[C@H](Cc1c[nH]cn1)NC(=O)[C@H](C)NC(=O)[C@H](CCC(N)=O)NC(=O)[C@H](CCC(N)=O)NC(=O)[C@H](C)NC(=O)[C@H](CC(C)C)NC(=O)[C@H](CCC(N)=O)NC(=O)[C@H](CC(=O)O)NC(=O)[C@H](C)NC(=O)[C@H](CCCCN)NC(=O)[C@@H](NC(=O)[C@H](CCSC)NC(=O)[C@H](CCC(=O)O)NC(=O)[C@H](CC(C)C)NC(=O)[C@@H](NC(=O)[C@H](CCC(=O)O)NC(=O)[C@H](CCCN=C(N)N)NC(=O)[C@H](CC(C)C)NC(=O)[C@H](CC(C)C)NC(=O)[C@H](Cc1c[nH]cn1)NC(=O)[C@H](Cc1ccccc1)NC(=O)[C@@H](NC(=O)[C@H](CC(C)C)NC(=O)[C@H](CC(=O)O)NC(=O)[C@H](C)NC(=O)[C@H](CO)NC(=O)[C@@H](NC(=O)[C@@H]1CCCN1C(=O)[C@@H]1CCCN1C(=O)[C@H](CCC(=O)O)NC(=O)[C@H](CCC(N)=O)NC(=O)[C@@H](N)CO)[C@@H](C)CC)[C@@H](C)O)C(C)C)[C@@H](C)O)C(=O)N[C@@H](C)C(N)=O`: the values for the Relative potency in test [1] and in test [2] were 0.03 and 0.005, respectively.
Turning to `CC[C@H](C)[C@H](NC(=O)[C@H](CC(=O)O)NC(=O)[C@H](CC(C)C)NC(=O)[C@H](CC(C)C)NC(=O)[C@H](CCCCN)NC(=O)[C@H](CCCN=C(N)N)NC(=O)[C@H](CC(N)=O)NC(=O)[C@H](CO)NC(=O)[C@H](Cc1c[nH]cn1)NC(=O)[C@H](C)NC(=O)[C@H](CCC(N)=O)NC(=O)[C@H](CCC(N)=O)NC(=O)[C@H](C)NC(=O)[C@H](CC(C)C)NC(=O)[C@H](CCC(N)=O)NC(=O)[C@H](CC(=O)O)NC(=O)[C@H](C)NC(=O)[C@H](CCCCN)NC(=O)[C@@H](NC(=O)[C@H](CCSC)NC(=O)[C@H](CCC(=O)O)NC(=O)[C@H](CC(C)C)NC(=O)[C@@H](NC(=O)[C@H](CCC(=O)O)NC(=O)[C@H](CCCN=C(N)N)NC(=O)[C@H](CC(C)C)NC(=O)[C@H](CC(C)C)NC(=O)[C@H](Cc1c[nH]cn1)NC(=O)[C@H](Cc1ccccc1)NC(=O)[C@@H](NC(=O)[C@H](CC(C)C)NC(=O)[C@H](CC(=O)O)NC(=O)[C@H](CC(C)C)NC(=O)[C@H](C)NC(=O)[C@@H](NC(=O)[C@@H]1CCCN1C(=O)[C@@H]1CCCN1C(=O)[C@H](CCC(=O)O)NC(=O)[C@H](CCC(N)=O)NC(=O)[C@@H](N)CO)[C@@H](C)CC)[C@@H](C)O)C(C)C)[C@@H](C)O)C(=O)N[C@@H](C)C(N)=O`, the results for the Relative potency in test [1] and in test [2] were 0.16 and 0.21, respectively.
With “H-SQEPPISLDLTFHALREVLEMTKADQLAQQAHSNRKLLDIA-NH2”, the Relative potency in test [1] and in test [2] was 0.001 in each case.
On to “H-SQEPPISLDLTFHLLREVLAMTKADQLAQQAHSNRKLLDIA-NH2”, for which the Relative potency in test [1] stood at 2.8; in test [2], 1.6.
Take “H-SQEPPISLDLTFHLLREVLEMTKADQAAQQAHSNRKLLDIA-NH2”: the Relative potency was 0.6 in test [1] and 0.38 in test [2].
For “H-SQEPPISLDLTFHLLREVLEMTKADQLAAQAHSNRKLLDIA-NH2” the same measures were 1 and 1.4.
Taken in the same sequence, the figures for “H-SQEPPISLDLTFHLLREVLEMTKADQLAQQAHSNRKLADIA-NH2” were 0.004 and 0.0002.
